The text below walks through data of patent publication US20200061047A1, “NEW USE OF RIFAMYCIN-QUINOLIZIDONE DUAL-ACTION MOLECULE” (TenNor Therapeutics Limited, priority 2017, published 2020).

Holding throughout (type): cell-based
The test system of experiment [1] is Bacteroides vulgatus JMI 927011. Briefly: MIC, agar dilution drug sensitivity test. As to conditions: Phocaeicola vulgatus, JMI927011. A general note: In agar dilution, organisms are placed on agar that contains the substance at set levels.
The subject of experiment [2] is Bordetella avium ATCC 6945. Briefly: MIC, agar dilution drug sensitivity test.
Experiment [3] concerns Haemophilus influenzae ATCC 49247. Briefly: MIC, microscale broth dilution drug sensitivity test. On the procedure: (§1) In this embodiment, compound I-rifamycin-quinolizidone dual-action molecule is used in a drug sensitivity test on pathogenic bacteria associated with hepatic encephalopathy, the pathogenic bacteria including the above ammonia-producing bacteria. Except that Haemophilus is tested using the microscale broth dilution method, all the other bacteria are tested using the agar dilution method consistent with that in the Guideline of the Clinical and Laboratory Standards Institute (CLSI; 1-3). All the other drug susceptibility tests are performed under anaerobic conditions except that some selective isolates are tested under both aerobic and anaerobic conditions. Control compounds include metronidazole, rifampicin, clindamycin (under anaerobic conditions) and ciprofloxacin (under aerobic and anaerobic conditions). The tested clinical isolates may be reference strains obtained from American Type Culture Collection, ATCC, Manassas, Va. After being received, the strains are respectively inoculated on appropriate agar plates and placed under optimized conditions for growth. The growing strains are cloned in the broth containing cryoprotectant to prepare bacterial suspensions, and the bacterial suspensions are subpackaged and then stored in freezing at −80° C. Before test, the frozen bacteria are inoculated into appropriate agar dishes and cultured for growth. Anaerobic bacteria grow for 48 hours at 35° C. in a Bactron II oxygen-free cabinet (Shel Lab, Cornelius, Oreg.) before test. Haemophilus Test Medium (HTM, Teknova, Hollister, Calif.; Art. No.: 895120) is used to perform drug sensitivity test on Hemophilus using the microscale broth dilution method under aerobic and anaerobic conditions. Preparation and storage of all the above broths are performed in accordance with CLSI (1-3).
On the technique in general: In broth dilution the organism is exposed to a series of concentrations in liquid medium.

Experiment [4] has as its system Haemophilus parainfluenzae ATCC 49247. Described as above. The settings on record: ATCC49247. On the procedure:
as §1

In experiment [5] the test system is Alcaligenes faecalis JMI 940880. Briefly: MIC, agar dilution drug sensitivity test. As to conditions: JMI940880, Aerobic.
The subject of experiment [6] is Corynebacterium urealyticum JMI 2015_30. Briefly: MIC, agar dilution drug sensitivity test. The settings on record: Aerobic.
Experiment [7] relates to Actinomyces naeslundii JMI 534283. Put plainly: MIC, agar dilution drug sensitivity test. As to conditions: JMI534283, Aerobic.
The subject of experiment [8] is Serratia marcescens ATCC 43862. Briefly: MIC, agar dilution drug sensitivity test.
Experiment [9] concerns Streptococcus parasanguinis MMX 5671. Put plainly: MIC, agar dilution drug sensitivity test.
Experiment [10] relates to Streptococcus salivarius ATCC 25975. Briefly: MIC, agar dilution drug sensitivity test.
Experiment [11] concerns Enterobacter aerogenes ATCC 13048. Put plainly: MIC, agar dilution drug sensitivity test.
The test system of experiment [12] is Staphylococcus saprophyticus JMI 2016_703. Put plainly: MIC, agar dilution drug sensitivity test. The settings on record: Aerobic.
In experiment [13] the test system is Streptococcus pneumoniae ATCC 49619. Put plainly: MIC, agar dilution drug sensitivity test.
In experiment [14] the test system is Proteus vulgaris ATCC 1331. Briefly: MIC, agar dilution drug sensitivity test.
Experiment [15] relates to Clostridium perfringens ATCC 13124. Put plainly: microbe, parasite or virus in culture. The settings on record: ATCC13124.
Experiment [16] concerns Escherichia coli ATCC 25922. Put plainly: MIC, agar dilution drug sensitivity test. As to conditions: ATCC25922, Table 1.
For experiment [17], the system named is Salmonella spp ATCC 35987. Put plainly: MIC, agar dilution drug sensitivity test. The settings on record: ATCC35987, Table 1. The method, then:
In this embodiment, compound I-rifamycin-quinolizidone dual-action molecule is used in a drug sensitivity test on pathogenic bacteria associated with hepatic encephalopathy, the pathogenic bacteria including the above ammonia-producing bacteria. Except that Haemophilus is tested using the microscale broth dilution method, all the other bacteria are tested using the agar dilution method consistent with that in the Guideline of the Clinical and Laboratory Standards Institute (CLSI; 1-3). All the other drug susceptibility tests are performed under anaerobic conditions except that some selective isolates are tested under both aerobic and anaerobic conditions. Control compounds include metronidazole, rifampicin, clindamycin (under anaerobic conditions) and ciprofloxacin (under aerobic and anaerobic conditions).
The tested clinical isolates may be reference strains obtained from American Type Culture Collection, ATCC, Manassas, Va. After being received, the strains are respectively inoculated on appropriate agar plates and placed under optimized conditions for growth. The growing strains are cloned in the broth containing cryoprotectant to prepare bacterial suspensions, and the bacterial suspensions are subpackaged and then stored in freezing at −80° C. Before test, the frozen bacteria are inoculated into appropriate agar dishes and cultured for growth. Anaerobic bacteria grow for 48 hours at 35° C. in a Bactron II oxygen-free cabinet (Shel Lab, Cornelius, Oreg.) before test. […]
The Minimum Inhibitory Concentration (MIC) is determined using the agar dilution method.
The MIC values of all microorganisms except Haemophilus are determined using the agar dilution method in the CLSI (1-2). […] After culturing, the MIC is determined in accordance with the CLSI guideline (1-2).

Experiment [18] deals with Yersinia enterocolitica ATCC 23715. Put plainly: MIC, agar dilution drug sensitivity test. As to conditions: ATCC23715, Table 1.
The test system of experiment [19] is Proteus vulgaris MMX 6454. Put plainly: MIC, agar dilution drug sensitivity test. As to conditions: MMX6454, Table 1.
For experiment [20], the system named is Proteus mirabilis JMI 933599. Briefly: MIC, agar dilution drug sensitivity test. The settings on record: JMI933599, Table 1.
Experiment [21] concerns Eggerthella lenta ATCC 43055. Briefly: MIC, agar dilution drug sensitivity test. The settings on record: ATCC43055, Table 1.
In experiment [22] the test system is Bifidobacterium infantis subsp. Infantis ATCC 15702. Briefly: MIC, agar dilution drug sensitivity test. The settings on record: ATCC15702, Table 1.
In experiment [23] the test system is Klebsiella oxytoca JMI 933995. Put plainly: MIC, agar dilution drug sensitivity test. As to conditions: JMI933995, Table 1.
Experiment [24] has as its system Bacteroides bifidum ATCC 1569. Put plainly: MIC, agar dilution drug sensitivity test. As to conditions: ATCC1569, Table 1.
Experiment [25] deals with Lactobacillus salivarius JMI 941623. Put plainly: MIC, agar dilution drug sensitivity test. As to conditions: Ligilactobacillus salivarius, JMI941623, Table 1.
Experiment [26] relates to Peptostreptococcus prevotii ATCC 9321. Put plainly: MIC, agar dilution drug sensitivity test. As to conditions: Anaerococcus prevotii, ATCC9321, Table 1.
Experiment [27] relates to Clostridium difficile ATCC 700057. Put plainly: MIC, agar dilution drug sensitivity test. The settings on record: Clostridioides difficile, ATCC700057.
Experiment [28] has as its system Fusobacterium necrophorum ATCC 25286. Briefly: MIC, agar dilution drug sensitivity test. As to conditions: ATCC25286, Table 1.
The test system of experiment [29] is Helicobacter pylori ATCC 700824. Briefly: MIC, agar dilution drug sensitivity test. As to conditions: ATCC700824, Table 1.
Experiment [30] concerns Morganella morganii MMX 6123. Put plainly: MIC, agar dilution drug sensitivity test. The settings on record: MMX6123, Table 1.
[31] abbreviates: ATCC49247, Haemophilus influenzae ATCC 49247, Aerobic.
Setting [32] is: ATCC49247, Haemophilus influenzae ATCC 49247, Anaerobic.

Structures are written as SMILES. In brackets after ≈: the same amount, converted by molar mass. Where two headings read alike, the source gives them in different places. Where only a bound is given, the exact number is not on record here.

In the case of `CO[C@H]1/C=C/O[C@@]2(C)Oc3c(C)c(O)c4c(O)c(c(/C=N/N5CCN(C)CC5)c(O)c4c3C2=O)NC(=O)/C(C)=C\C=C\[C@H](C)[C@H](O)[C@@H](C)[C@@H](O)[C@@H](C)[C@H](OC(C)=O)[C@@H]1C` [Rifampicin, rifampicin], the MIC in [1] was 0.06 µg/mL (≈ 0.0729 µM); in experiment [2] (Bordetella avium, ATCC6945, Bordetella avium ATCC 6945, Aerobic, read-out: MIC), 16 µg/mL (≈ 19.4 µM); in experiment [2] (Bordetella avium, ATCC6945, Bordetella avium ATCC 6945, Anaerobic, read-out: MIC) it was 64 µg/mL (≈ 77.8 µM); in experiment [3] (setting [31]) it was 0.25 to 1 µg/mL (≈ 0.304 to 1.22 µM); in experiment [3] (setting [32]) it was 0.25 µg/mL (≈ 0.304 µM); in [4] (Haemophilus parainfluenzae ATCC 49247, Aerobic, read-out: MIC) it was 0.5 µg/mL (≈ 0.608 µM). The MIC in experiment [5] is 16 µg/mL (≈ 19.4 µM); in experiment [6], 0.004 µg/mL (≈ 0.00486 µM); in experiment [7], less than 0.002 µg/mL; in [8] (Serratia marcescens, ATCC43862, Serratia marcescens ATCC 43862, Aerobic, read-out: MIC) it was 64 µg/mL (≈ 77.8 µM); in experiment [8] (Serratia marcescens, ATCC43862, Serratia marcescens ATCC 43862, Anaerobic, read-out: MIC), 64 µg/mL (≈ 77.8 µM); in [9] (Streptococcus parasanguinis, MMX5671, Streptococcus parasanguinis MMX 5671, Aerobic, read-out: MIC), 0.03 µg/mL (≈ 0.0365 µM). For the same molecule, the MIC in experiment [9] (Streptococcus parasanguinis, MMX5671, Streptococcus parasanguinis MMX 5671, Anaerobic, read-out: MIC) was 16 µg/mL (≈ 19.4 µM); in experiment [10] (Streptococcus salivarius, ATCC25975, Streptococcus salivarius ATCC 25975, Aerobic, read-out: MIC), 0.03 µg/mL (≈ 0.0365 µM); in experiment [10] (Streptococcus salivarius, ATCC25975, Streptococcus salivarius ATCC 25975, Anaerobic, read-out: MIC), 32 µg/mL (≈ 38.9 µM); in [11] (Klebsiella aerogenes, ATCC13048, Enterobacter aerogenes ATCC 13048, Aerobic, read-out: MIC), 64 µg/mL (≈ 77.8 µM); in [11] (Klebsiella aerogenes, ATCC13048, Enterobacter aerogenes ATCC 13048, Anaerobic, read-out: MIC), 64 µg/mL (≈ 77.8 µM); in experiment [12], 1 µg/mL (≈ 1.22 µM). The MIC was 0.03 µg/mL (≈ 0.0365 µM) in [13] (ATCC49619, Streptococcus pneumoniae ATCC 49619, Aerobic, read-out: MIC); 0.12 µg/mL (≈ 0.146 µM) in [13] (ATCC49619, Streptococcus pneumoniae ATCC 49619, Anaerobic, read-out: MIC); 16 µg/mL (≈ 19.4 µM) in [14] (Proteus vulgaris, ATCC1331, Proteus vulgaris ATCC 1331, Aerobic, read-out: MIC); 8 µg/mL (≈ 9.72 µM) in experiment [14] (Proteus vulgaris, ATCC1331, Proteus vulgaris ATCC 1331, Anaerobic, read-out: MIC).

As to `CO[C@H]1/C=C/O[C@@]2(C)Oc3c(C)c(O)c4c(O)c(c5c(nc6cc(C)ccn65)c4c3C2=O)NC(=O)/C(C)=C\C=C\[C@H](C)[C@H](O)[C@@H](C)[C@@H](O)[C@@H](C)[C@H](OC(C)=O)[C@@H]1C` [Rifaximin, rifaximin], the MIC in experiment [15] was 0.12 µg/mL (≈ 0.153 µM); in experiment [16], 8 µg/mL (≈ 10.2 µM); in experiment [17], 16 µg/mL (≈ 20.4 µM); in experiment [18] it was 8 µg/mL (≈ 10.2 µM); in experiment [19] it was 4 µg/mL (≈ 5.09 µM); in experiment [20], 8 µg/mL (≈ 10.2 µM). For the same molecule, the MIC in experiment [21] is 0.12 µg/mL (≈ 0.153 µM); in experiment [22] it was 0.25 µg/mL (≈ 0.318 µM); in experiment [23], 32 µg/mL (≈ 40.7 µM); in experiment [24] it was 0.5 µg/mL (≈ 0.636 µM); in experiment [25] it was 1 µg/mL (≈ 1.27 µM); in experiment [26], 0.03 µg/mL (≈ 0.0382 µM). For the same molecule, the MIC in experiment [27] stood at 0.004 µg/mL (≈ 0.00509 µM); in [28], 16 µg/mL (≈ 20.4 µM); in experiment [29], 2 µg/mL (≈ 2.54 µM); in experiment [30] it was 16 µg/mL (≈ 20.4 µM).

With `Cc1ncc([N+](=O)[O-])n1CCO` [Metronidazole, metronidazole], the MIC is 2 µg/mL (≈ 11.7 µM) in experiment [15]; more than 256 µg/mL in [2] (Bordetella avium ATCC 6945, Anaerobic); more than 256 µg/mL in experiment [2] (Bordetella avium, ATCC6945); 64 µg/mL (≈ 374 µM) in experiment [3] (setting [31]); 64 µg/mL (≈ 374 µM) in experiment [3] (setting [32]); 128 µg/mL (≈ 748 µM) in experiment [4] (Haemophilus parainfluenzae). Further, the MIC in [8] (Serratia marcescens ATCC 43862, Anaerobic) was more than 256 µg/mL; in [8] (Serratia marcescens, ATCC43862), more than 256 µg/mL; in experiment [9] (Streptococcus parasanguinis MMX 5671, Anaerobic), more than 256 µg/mL; in [9] (Streptococcus parasanguinis, MMX5671), more than 256 µg/mL; in [10] (Streptococcus salivarius ATCC 25975, Anaerobic), more than 256 µg/mL; in experiment [10] (Streptococcus salivarius, ATCC25975), more than 256 µg/mL. For the same molecule, the MIC is more than 256 µg/mL in [11] (Enterobacter aerogenes ATCC 13048, Anaerobic); more than 256 µg/mL in experiment [11] (Klebsiella aerogenes, ATCC13048); 1 µg/mL (≈ 5.84 µM) in [21]; more than 256 µg/mL in experiment [13] (ATCC49619, Streptococcus pneumoniae ATCC 49619, Aerobic); 128 µg/mL (≈ 748 µM) in experiment [13] (ATCC49619, Streptococcus pneumoniae ATCC 49619, Anaerobic); 16 µg/mL (≈ 93.5 µM) in [22]. In addition, the MIC in experiment [24] is 8 µg/mL (≈ 46.7 µM); in experiment [26], 256 µg/mL (≈ 1500 µM); in experiment [14] (Proteus vulgaris ATCC 1331, Anaerobic), more than 256 µg/mL; in experiment [14] (Proteus vulgaris, ATCC1331) it was more than 256 µg/mL; in experiment [27], 0.5 µg/mL (≈ 2.92 µM); in experiment [28], 0.12 µg/mL (≈ 0.701 µM).
